Data on 24 molecules can be found in patent US20120270864A1, “2-QUINOLINONE AND 2-QUINOXALINONE-DERIVATIVES AND THEIR USE AS ANTIBACTERIAL AGENTS” (ASTRAZENECA AB, priority 2006, published 2012).

The test system of this assay is Staphylococcus aureus (Sau) 516 cells. The assay can be described thus: Bacterial Susceptibility Testing Methods 2 (microbroth dilution, growth inhibition). It counts as cell-based. From the text: Compounds may be tested for antimicrobial activity by susceptibility testing using microbroth dilution methods recommended by CSLI. Compounds may be dissolved in dimethylsulfoxide and tested in 10 doubling dilutions in the susceptibility assays such that the final dimethylsulfoxide concentration in the assay is 2% (v/v). The Staphylococcus aureus (Sau) 516 cells used in the assay may be grown overnight on appropriate agar media and then suspended in the NCCLS-recommended liquid susceptibility-testing media. […] Plates may be incubated under appropriate conditions of atmosphere and temperature and for times according to NCCLS standard methods prior to being read. As used in Table 1 below, the term “inhibition” refers to the percentage of Staphylococcus aureus 516 cell growth that is suppressed (compared to an untreated sample) by the compound of the indicated example number. When tested in the above in-vitro assay, the compounds and salts of the example numbers listed below were tested at the indicated concentrations, providing the indicated inhibitions. In most instances, the highest concentrations at which the compounds were tested was 8 μg/mL. In some instances, however, compounds were tested at concentrations higher than 8 μg/mL, typically when the concentration was first measured in μM and was subsequently converted to μg/mL. In those cases in which compounds were tested at more than one concentration higher than 8 μg/mL, the concentration closest to 8 μg/mL is provided below.
(Broth dilution looks for growth in wells or tubes with falling amounts of substance.)

[1] abbreviates: Staphylococcus aureus, Tested Concentration 8 μg/mL, Staphylococcus aureus 516 cell growth suppressed compared to untreated sample.
[2] abbreviates: Tested Concentration 8 μg/mL, Staphylococcus aureus 516 cell growth suppressed compared to untreated sample.

A word on the inhibition: it is the percentage by which the read-out fell short of the control. A higher inhibition goes with a strong effect. `COc1ccc2ncc(=O)n(CCN3CC[C@@H](NCc4ccc5c(n4)NC(=O)CO5)[C@@H](OC)C3)c2c1` [Example 15, 6-[({(3S,4R)-3-Methoxy-1-[2-(7-methoxy-2-oxoquinoxalin-1(2H)-yl)ethyl]piperidin-4-yl}amino)methyl]-2H-pyrido[3,2-b][1,4]oxazin-3 (4H)-one] registered an inhibition at 8 µg/mL under setting [1] of 97%.
In turn, `COc1ccc2ncc(=O)n(CCN3CC[C@H](NCc4cc5c(cn4)OCCO5)[C@H](OC)C3)c2c1` [Example 16, 1-(2-{(3R,4S)-4-[(2,3-Dihydro[1,4]dioxino[2,3-c]pyridin-7-ylmethyl)amino]-3-methoxypiperidin-1-yl}ethyl)-7-methoxyquinoxalin-2(1H)-one] yielded an inhibition at 8 µg/mL under setting [1] of 97%.
Take `COc1ccc2ncc(=O)n(CCN3CC[C@H](NCc4ccc5c(n4)NC(=O)CO5)[C@H](OC)C3)c2c1` [Example 17, 6-[({(3R,4S)-3-Methoxy-1-[2-(7-methoxy-2-oxoquinoxalin-1(2H)-yl)ethyl]piperidin-4-yl}amino)methyl]-2H-pyrido[3,2-b][1,4]oxazin-3(4H)-one]: the inhibition at 8 µg/mL under setting [1] was found to be 99%.
With `COc1ccc2ncc(=O)n(CCN3CC[C@H](NCc4ccc5c(n4)NC(=O)CS5)[C@H](OC)C3)c2c1` [Example 18], under setting [2], the “Inhibition (%)” value worked out at 95%.
As for `CO[C@H]1CN(CCn2c(=O)ccc3ccc(C#N)cc32)CC[C@H]1NCc1cc2c(cn1)OCCO2` [Example 19, 1-(2-{(3S,4R)-4-[(2,3-Dihydro[1,4]dioxino[2,3-c]pyridin-7-ylmethyl)amino]-3-methoxypiperidin-1-yl}ethyl)-2-oxo-1,2-dihydro quinoline-7-carbonitrile], the inhibition at 8 µg/mL under setting [1] is 100%.
`CO[C@H]1CN(CCn2c(=O)ccc3ccc(C#N)cc32)CC[C@H]1NCc1ccc2c(n1)NC(=O)CO2` [Example 20, 1-[2-((3S,4R)-3-M ethoxy-4-{[(3-oxo-3,4-dihydro-2H-pyrido[3,2-b][1,4]oxazin-6-yl)methyl]amino}piperidin-1-yl)ethyl]-2-oxo-1,2-dihydro quino line-7-carbonitrile] returned an inhibition at 8 µg/mL under setting [1] of 100%.
On the same count and under the same terms, under `CO[C@H]1CN(CCn2c(=O)ccc3ccc(C#N)cc32)CC[C@H]1NCc1ccc2c(n1)NC(=O)CS2` [Example 21, 1-[2-((3S,4R)-3-M ethoxy-4-{[(3-oxo-3,4-dihydro-2H-pyrido[3,2-b][1,4]thiazin-6-yl)methyl]amino}piperidin-1-yl)ethyl]-2-oxo-1,2-dihydro quino line-7-carbonitrile] stands 100%; under `CO[C@@H]1CN(CCn2c(=O)ccc3ccc(C#N)cc32)CC[C@@H]1NCc1cc2c(cn1)OCCO2` [Example 22, 1-(2-{(3R,4S)-4-[(2,3-Dihydro[1,4]dioxino[2,3-c]pyridin-7-ylmethyl)amino]-3-methoxypiperidin-1-yl}ethyl)-2-oxo-1,2-dihydroquinoline-7-carbonitrile], 100%.
`CO[C@@H]1CN(CCn2c(=O)ccc3ccc(C#N)cc32)CC[C@@H]1NCc1ccc2c(n1)NC(=O)CO2` [Example 23, 1-[2-((3R,4S)-3-M ethoxy-4-{[(3-oxo-3,4-dihydro-2H-pyrido[3,2-b][1,4]oxazin-6-yl)methyl]amino}piperidin-1-yl)ethyl]-2-oxo-1,2-dihydro quino line-7-carbonitrile] gave an inhibition at 8 µg/mL under setting [1] of 100%.
On the same count and under the same terms, under `CO[C@@H]1CN(CCn2c(=O)ccc3ccc(C#N)cc32)CC[C@@H]1NCc1ccc2c(n1)NC(=O)CS2` [Example 24, 1-[2-((3R,4S)-3-Methoxy-4-{[(3-oxo-3,4-dihydro-2H-pyrido[3,2-b][1,4]thiazin-6-yl)methyl]amino}piperidin-1-yl)ethyl]-2-oxo-1,2-dihydro quino line-7-carbonitrile] stands 100%.
Take `COc1ccc2ncc(=O)n(CCN3CC[C@H](NCc4cc5c(cn4)OCCO5)[C@@H](OC)C3)c2c1` [Example 25, 1-(2-{(3S,4S)-4-[(2,3-Dihydro[1,4]dioxino[2,3-c]pyridin-7-ylmethyl)amino]-3-methoxypiperidin-1-yl}ethyl)-7-methoxyquinoxalin-2(1H)-one]: the inhibition at 8 µg/mL under setting [1] is 98%.
Under setting [1], `COc1ccc2ncc(=O)n(CCN3CC[C@H](NCc4ccc5c(n4)NC(=O)CO5)[C@@H](OC)C3)c2c1` [Example 26, 6-[({(3S,4S)-3-Methoxy-1-[2-(7-methoxy-2-oxoquinoxalin-1(2H)-yl)ethyl]piperidin-4-yl}amino)methyl]-2H-pyrido[3,2-b][1,4]oxazin-3(4H)-one] returned an inhibition at 8 µg/mL of 98%.
The same measure, in the same setting: the value for `COc1ccc2ncc(=O)n(CCN3CC[C@@H](NCc4cc5c(cn4)OCCO5)[C@H](OC)C3)c2c1` [Example 27, 1-(2-{(3R,4R)-4-[(2,3-Dihydro[1,4]dioxino[2,3-c]pyridin-7-ylmethyl)amino]-3-methoxypiperidin-1-yl}ethyl)-7-methoxyquinoxalin-2(1H)-one] was 87%; that for `COc1ccc2ncc(=O)n(CCN3CC[C@@H](NCc4ccc5c(n4)NC(=O)CO5)[C@H](OC)C3)c2c1` [Example 28, 6-[({(3R,4R)-3-Methoxy-1-[2-(7-methoxy-2-oxoquinoxalin-1(2H)-yl)ethyl]piperidin-4-yl}amino)methyl]-2H-pyrido[3,2-b][1,4]oxazin-3(4H)-one] was 98%.
As to `N#Cc1ccc2ccc(=O)n(CCN3CCC(NCc4ccc5c(n4)NC(=O)CO5)C(F)C3)c2c1` (stereo not shown) [Example 34], where the note is “Tested Concentration 12 μg/mL, Staphylococcus aureus 516 cell growth”, the “Inhibition (%)” value was found to be 91%.
Take `CO[C@@H]1CN(CCn2c(=O)ccc3ccc(C#N)cc32)CC[C@H]1NCc1cc2c(cn1)OCCO2` [Example 41, 1-(2-{(3R,4R)-4-[(2,3-dihydro[1-yl]dioxino[2,3-c]pyridin-7-ylmethyl)amino]-3-methoxypiperidin-1-yl}ethyl)-2-oxo-1,2-dihydro quinoline-7-carbonitrile]: the “Inhibition (%)” value under setting [2] is reported as 100%.
Turning to `CO[C@@H]1CN(CCn2c(=O)ccc3ccc(C#N)cc32)CC[C@H]1NCc1ccc2c(n1)NC(=O)CO2` [Example 42, 1-[2-((3R,4R)-3-methoxy-4-{[(3-oxo-3,4-dihydro-2H-pyrido[3,2-b][1,4]oxazin-6-yl)methyl]amino}piperidin-1-yl)ethyl]-2-oxo-1,2-dihydroquinoline-7-carbonitrile], at 8 µg/mL the inhibition under setting [1] was 100%.
For the molecule `CO[C@H]1CN(CCn2c(=O)ccc3ccc(C#N)cc32)CC[C@@H]1NCc1cc2c(cn1)OCCO2` [Example 43, 1-(2-{(3S,4S)-4-[(2,3-Dihydro[1,4]dioxino[2,3-c]pyridin-7-ylmethyl)amino]-3-methoxypiperidin-1-yl}ethyl)-2-oxo-1,2-dihydroquinoline-7-carbonitrile], 4 µg/mL produced 100% inhibition (Staphylococcus aureus, Tested Concentration 4 μg/mL, Staphylococcus aureus 516 cell growth). In addition, testing at 8 µg/mL under setting [1] gave an inhibition of 12%.
Regarding `CO[C@H]1CN(CCn2c(=O)ccc3ccc(C#N)cc32)CC[C@@H]1NCc1ccc2c(n1)NC(=O)CO2` [Example 44, 1-[2-((3S,4S)-3-Methoxy-4-{[(3-oxo-3,4-dihydro-2H-pyrido[3,2-b][1,4]oxazin-6-yl)methyl]amino}piperidin-1-yl)ethyl]-2-oxo-1,2-dihydroquinoline-7-carbonitrile], 8 µg/mL produced 100% inhibition under setting [1].
Still for that read-out and setting: the value for `COc1ccc2ncc(=O)n(CCN3CC[C@@H](NCc4ccc5c(n4)NC(=O)CO5)[C@@H](F)C3)c2c1` [Example 45, 6-[({(3S,4R)-3-Fluoro-1-[2-(7-methoxy-2-oxoquinoxalin-1(2H)-yl)ethyl]piperidin-4-yl}amino)methyl]-2H-pyrido[3,2-b][1,4]oxazin-3(4H)-one] was 97%; that for `COc1ccc2ncc(=O)n(CCN3CC[C@H](NCc4ccc5c(n4)NC(=O)CO5)[C@H](F)C3)c2c1` [Example 46, 6-[({(3R,4S)-3-Fluoro-1-[2-(7-methoxy-2-oxoquinoxalin-1(2H)-yl)ethyl]piperidin-4-yl}amino)methyl]-2H-pyrido[3,2-b][1,4]oxazin-3 (4H)-one] was 100%; that for `CO[C@@H]1CN(CCn2c(=O)cc(C)c3ccc(C#N)cc32)CC[C@@H]1NCc1ccc2c(n1)NC(=O)CO2` [Example 47, 1-[2-((3R,4S)-3-M ethoxy-4-{[(3-oxo-3,4-dihydro-2H-pyrido[3,2-b][1,4]oxazin-6-yl)methyl]amino}piperidin-1-yl)ethyl]-4-methyl-2-oxo-1,2-dihydroquinoline-7-carbonitrile] was 100%.
Molecule `N#Cc1ccc2ccc(=O)n(CCN3CC[C@@H](NCc4ccc5c(n4)NC(=O)CO5)[C@@H](F)C3)c2c1` [Example 50, 1-[2-((3S,4R)-3-Fluoro-4-{[(3-oxo-3,4-dihydro-2H-pyrido[3,2-b][1,4]oxazin-6-yl)methyl]amino}piperidin-1-yl)ethyl]-2-oxo-1,2-dihydro quino line-7-carbonitrile] showed an inhibition at 14 µg/mL (Staphylococcus aureus, Tested Concentration 14 μg/mL, Staphylococcus aureus 516 cell growth) of 100%.
`CO[C@H]1CN(CCn2c(=O)cc(C)c3ccc(C#N)cc32)CC[C@H]1NCc1ccc2c(n1)NC(=O)CO2` [Example 51, 1-[2-((3S,4R)-3-Methoxy-4-{[(3-oxo-3,4-dihydro-2H-pyrido[3,2-b][1,4]oxazin-6-yl)methyl]amino}piperidin-1-yl)ethyl]-4-methyl-2-oxo-1,2-dihydro quino line-7-carbonitrile]: at 9 µg/mL the inhibition (Staphylococcus aureus, Tested Concentration 9 μg/mL, Staphylococcus aureus 516 cell growth) was 100%.
